The values that follow come from publication PMC7377239, “Cardiovascular Effects of Polychlorinated Biphenyls and Their Major Metabolites” (Environmental Health Perspectives, 2020).

Test [1] concerns iCell endothelial cells (human iPSC-derived ECs). The test is described as follows: Tube formation (tubulogenesis) assay in iCell endothelial cells, 18 h. Type of test: cell-based. As to conditions: Homo sapiens, Endothelial cell; for activity at 0.1 µM: 0.10 µM. The gist of the method:
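Tube formation was measured by calcein AM imaging after overnight compound exposure (37°C, 0.5% DMSO vehicle) of human iPSC-derived ECs, 7,500/well, on reduced-growth-factor Geltrex in starvation medium. Vehicle-normalized data fitted to four-parameter logistic; POD set at one vehicle SD; without response, 100 μM taken as NOAEL.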

The test system of test [2] is HUVECs. The experiment in a line: Tube formation (tubulogenesis) assay in HUVECs, 18 h. Format: cell-based, human. As to conditions: Homo sapiens, HUVEC, 18 h; for activity at 0.01 µM: concentration 0.01 µM; for activity at 0.1 µM: concentration 0.10 µM; for activity at 1 µM: concentration 1.00 µM; for activity at 10 µM: concentration 10.00 µM; for activity at 100 µM: concentration 100.00 µM. In outline:
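HUVECs (passage 1–5) seeded on reduced-growth-factor basement membrane and exposed to compounds overnight at 37°C, 5% CO2, in 2× maintenance medium with 12.5 ng/mL VEGF; 0.5% DMSO vehicle. Calcein AM-stained tube networks imaged and analysed; vehicle-normalized readouts fit to four-parameter logistic, POD set at one SD of vehicle means.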

The mark [3] stands for this setting: iPSC-EC, 0.00 µM = 100.00, read-out: endo.mtl.18hr.
The mark [4] stands for this setting: iPSC-EC, 0.00 µM = 100.00, read-out: endo.tlps.18hr.
The mark [5] stands for this setting: iPSC-EC, 0.00 µM = 100.00, read-out: endo.tta.18hr.
The mark [6] stands for this setting: iPSC-EC, 0.00 µM = 100.00, read-out: endo.ttl.18hr.
Setting [7] is: HUVECs tube formation, 0.00 µM = 100.00, read-out: huvec.mtl.18hr.
Where [8] appears, read: HUVECs tube formation, 0.00 µM = 100.00, read-out: huvec.tlps.18hr.
The mark [9] stands for this setting: HUVECs tube formation, 0.00 µM = 100.00, read-out: huvec.tta.18hr.
Where [10] appears, read: HUVECs tube formation, 0.00 µM = 100.00, read-out: huvec.ttl.18hr.
Where [11] appears, read: endothelial cells (endo), tube formation mtl, 18 hr, read-out: POD endo.mtl.18hr.
The mark [12] stands for this setting: endothelial cells (endo), tube formation tlps, 18 hr, read-out: POD endo.tlps.18hr.
[13] abbreviates: endothelial cells (endo), tube formation tta, 18 hr, read-out: POD endo.tta.18hr.
The mark [14] stands for this setting: endothelial cells (endo), tube formation ttl, 18 hr, read-out: POD endo.ttl.18hr.
The mark [15] stands for this setting: tube formation mtl, read-out: POD huvec.mtl.18hr.
The mark [16] stands for this setting: tube formation tlps, read-out: POD huvec.tlps.18hr.
[17] abbreviates: tube formation tta, read-out: POD huvec.tta.18hr.
Setting [18] is: tube formation ttl, read-out: POD huvec.ttl.18hr.

Structures are written as SMILES. Like-named read-outs stand apart in the source and are kept apart here.

Regarding `Clc1cc(Cl)c(-c2cc(Cl)c(Cl)cc2Cl)cc1Cl` [PCB153], the activity at 0.01 µM was 121% in test [1] (setting [3]); 80.7% in test [1] (setting [4]); 103% in test [1] (setting [5]); 116% in test [1] (setting [6]); 88.3% in test [2] (setting [7]); 103% in test [2] (setting [8]). Further, the activity at 0.01 µM in test [2] (setting [9]) was determined as 72.1%; in test [2] (setting [10]) it was 66.9%. Besides, the activity at 0.1 µM in test [1] (setting [3]) was 119%; in test [1] (setting [4]), 104%; in test [1] (setting [5]), 124%; in test [1] (setting [6]), 134%; in test [2] (setting [7]), 95.5%; in test [2] (setting [8]), 80.3%. Moreover, the figures for the activity at 0.1 µM in test [2] (setting [9]) and in test [2] (setting [10]) were 103% and 95.6%, respectively. Further, the activity at 1 µM in test [1] (setting [3]) came out at 122%; in test [1] (setting [4]) it was 111%; in test [1] (setting [5]) it was 111%; in test [1] (setting [6]), 123%; in test [2] (setting [7]) it was 88.7%; in test [2] (setting [8]) it was 89.4%. Further, the results for the activity at 1 µM in test [2] (setting [9]) and in test [2] (setting [10]) were 73.7% and 66.3%, respectively. Also, the activity at 10 µM stood at 135% in test [1] (setting [3]); 202% in test [1] (setting [4]); 148% in test [1] (setting [5]); 157% in test [1] (setting [6]); 95.2% in test [2] (setting [7]); 107% in test [2] (setting [8]). For the same compound, the values for the activity at 10 µM in test [2] (setting [9]) and in test [2] (setting [10]) were 115% and 106%, respectively. Besides, the activity at 100 µM in test [1] (setting [3]) came to 55.1%; in test [1] (setting [4]), 21.1%; in test [1] (setting [5]) it was 20.2%; in test [1] (setting [6]), 22.9%; in test [2] (setting [7]), 65.2%; in test [2] (setting [8]), 61%. The values for the activity at 100 µM in test [2] (setting [9]) and in test [2] (setting [10]) were 54.1% and 48%, respectively. Further, the minimal effective concentration in test [1] (iPSC-EC, 100.00 = highest concentration tested, read-out: endo.mtl.18hr POD) came out at 0.007 µM; in test [1] (iPSC-EC, 100.00 = highest concentration tested, read-out: endo.tlps.18hr POD), 1.93 µM; in test [1] (iPSC-EC, 100.00 = highest concentration tested, read-out: endo.tta.18hr POD) it was 3.83 µM; in test [1] (iPSC-EC, 100.00 = highest concentration tested, read-out: endo.ttl.18hr POD) it was 0.58 µM; in test [2] (HUVECs tube formation, MAX 100.00, read-out: huvec.mtl.18hr POD), 19.8 µM; in test [2] (HUVECs tube formation, MAX 100.00, read-out: huvec.tlps.18hr POD) it was 61.8 µM. In addition, the minimal effective concentration was found to be 8.87 µM in test [2] (HUVECs tube formation, MAX 100.00, read-out: huvec.tta.18hr POD) and 0.13 µM in test [2] (HUVECs tube formation, MAX 100.00, read-out: huvec.ttl.18hr POD).
As for `Clc1ccc(-c2ccccc2)cc1` [PCB 3, 4-chlorobiphenyl], the minimal effective concentration was 100 µM in test [1] (setting [11]); 100 µM in test [1] (setting [12]); 100 µM in test [1] (setting [13]); 100 µM in test [1] (setting [14]); 25.3 µM in test [2] (setting [15]); 100 µM in test [2] (setting [16]). Also, the minimal effective concentration was 0.67 µM in test [2] (setting [17]) and 0.7 µM in test [2] (setting [18]).
In the case of `Clc1cccc(-c2cccc(Cl)c2)c1` [PCB 11, 3,3′-Dichlorobiphenyl], the minimal effective concentration in test [1] (setting [11]) came out at 100 µM; in test [1] (setting [12]), 100 µM; in test [1] (setting [13]), 100 µM; in test [1] (setting [14]), 100 µM; in test [2] (setting [15]), 100 µM; in test [2] (setting [16]), 41.8 µM. Further, the minimal effective concentration in test [2] (setting [17]) and in test [2] (setting [18]) was 100 µM in each case.
For the compound `Clc1ccc(Cl)c(-c2cc(Cl)ccc2Cl)c1` [PCB 52, 2,2′,5,5′-tetrachlorobiphenyl], the minimal effective concentration in test [1] (setting [11]) was determined as 79.8 µM; in test [1] (setting [12]) it was 100 µM; in test [1] (setting [13]) it was 100 µM; in test [1] (setting [14]), 100 µM; in test [2] (setting [15]), 100 µM; in test [2] (setting [16]), 100 µM. Further, the minimal effective concentration in test [2] (setting [17]) and in test [2] (setting [18]) was 100 µM throughout.
`Clc1ccc(Cl)c(-c2c(Cl)ccc(Cl)c2Cl)c1` [PCB 95, 2,2′,3,5′,6-pentachlorobiphenyl]: the minimal effective concentration in test [1] (setting [11]) came to 48.6 µM; in test [1] (setting [12]), 53.9 µM; in test [1] (setting [13]), 48.7 µM; in test [1] (setting [14]) it was 55.7 µM; in test [2] (setting [15]), 8.29 µM; in test [2] (setting [16]), 100 µM. In addition, the minimal effective concentration in test [2] (setting [17]) and in test [2] (setting [18]) was 100 µM each time.
